Results as given in patent US20100184811A1, “ISONIAZID MEDIATED HEALING OF WOUNDS AND ULCERS” (priority 2006, published 2010).
“Also recorded” adds a separate entry of the source.

Columns and labels:
[1] = system: non-ischemic cutaneous lesions / non-TB chronic wounds; details: cited from earlier work
ischemic wounds = assay: Ischemic cutaneous wound healing in a validated rat model (dorsal ischemic skin flap); format: in vivo, Male Sprague-Dawley rats; details: 10 mg/kg i.p. b.i.d., 14 days; 8 mm full-thickness wound in ischemic flap; p=0.014
Protocol: The compounds were masked to the investigators. The first dose was given directly after wounding.
Results are expressed as mean±SD or mean±SEM. Wound healing differences among the two groups were calculated as the area under the wound healing curves (FIG. 2A+B) with correction according to Bonferroni (p=0.035). Licox® results were analyzed by the Wilcoxon test.

[2] = Tolerability and body weight in the rat wound model
Protocol: Rats were anesthetized by intraperitoneal (i.p.) injection of 100 mg/kg ketamine (Parke-Davis, Berlin, Germany) and 15 mg/kg xylazin (Bayer, Leverkusen, Germany). A standardized pedunculated dorsal ischemic skin flap (3 cm×7 cm) was lifted, replaced, and fixed with metal clips. Two full-thickness wounds were made using punch biopsies (8 mm diameter), one in the ischemic flap region and one non-ischemic outside the flap in the neck.
To the control group, comprising 10 rats, 10 ml/kg of sterile isotonic saline was administered. The compounds were masked to the investigators. The first dose was given directly after wounding. Wounds were traced (outer margins) on OpSite* Flexigrid* (Smith & Nephew) 30 minutes after wounding day 0 and after dressing (Hydrosorb, Hartmann) removal and wound cleansing on subsequent days (Table I). On post-wounding day 2, intracutaneous oxygen tensions were measured 1 hour after administration of compounds with Licox® (Integra LifeSciences Corporation) Clark type probe under full anesthesia. The Licox® probe was positioned at the wound edges using a Venflon catheter (FIG. 1).

What does the source list for `NNC(=O)c1ccncc1` [Isoniazid, pyridine-4-carbohydrazide]?
Effect on healing of a variety of non-TB chronic wounds ([1]; case report, Martyn and Campell (1963)): stimulating effects; Effect on ischemic tissue ([1]; conclusion of Martyn and Campell (1963)): little effect on ischemic tissue; Healing of coincidental non-ischemic cutaneous lesions ([1]; tuberculosis and non-tuberculosis patients treated with isoniazid (Potter and Taylor, 1969)): healed; Healing of ischemic wounds compared with the control (area under the wound healing curves) (ischemic wounds): promoted healing of the ischemic wounds; also recorded: stimulated ischemic wound healing; Body weight difference among groups ([2]; before operation or after 14 days of treatment): did not differ significantly; Body weights before operation (Mean ± SD) ([2]; before operation, n=10): 360 ± 8 gram; Rats that died ([2]; group of 10 rats, death 5 days after operation): one; Body weights on post-wounding day 14 (Mean ± SD) ([2]; post operative day 14, 10 mg/kg i.p. b.i.d., n=9): 341 ± 12 gram
